Blank lines part the entries; values can stand above or below the compound they belong to.
Legend:
[1] = Intraduodenal (id) bioavailability screen in minipigs, oil formulations, vs iv parent dichloro complex; assay type: in vivo, Gottingen minipig; details: for Mini-Pig BioA: id 10 mg/kg, 10% by weight formulation, AUC0->24 h vs iv 1 mg/kg parent chloro complex
Description: Compounds were screened for oral bioavailability by injecting the formulated prodrugs directly into the duodenum (intraduodenal or id administration) of the minipig test subjects, thus bypassing the acidic environment of the stomach and thereby eliminating potentially misleading oral bioavailability results that could arise from alteration of the test article drug in the acid environment of the stomach.
The studies were conducted at Xenometrics LLC (Stillwell, Kans.) and the Id bioavailability was determined using various axial ligand derivative complexes of GC4419, GC4444, GC4403 and GC4401.
*Where the iv dose is 1 mg of test article drug per kilogram body weight of the mini-pig, and the dose administered id is 10 mg of test article drug per kg body weight of the mini-pig.
Male Gottingen minipigs (4-5 mo old, 9-12 kg weight) were purchased from Marshall BioResources and housed at Xenometrics. […] The distal end was exteriorized with a reusable accessible hub (see surgical details below). During a recovery period of at least 2 weeks the minipigs were handled daily to acclimate them to the test procedures, i.e., id dosing and blood collections. For each experiment, each minipig received a test article drug dissolved or suspended in an excipient vehicle. […] All dosing experiments were conducted in fasted animals. Food was withdrawn from the minipigs 16 hours before dosing. The minipigs had ad libitum access to water. Dosed minipigs were allowed access to food 6 hour after dosing. The test article was administered at a dose of 10 mg/kg parent drug in 0.1 m L/kg vehicle (e.g., 1.5 mL in 15 kg minipig) as a bolus injection (˜1 minute) via the id cannula. The actual amount of total test article drug administered varied with the formula weight of the prodrug. An equal volume of excipient vehicle was used to flush the cannula after the test article was administered. Approximately 6 hours later, corn oil was used to flush the cannula. After approximately 24 hours post-dose, the catheter was flushed with sterile saline solution and capped. At the following time-points 0.25, 0.5, 1, 2, 4, 8, 24 and 48 hour post-injection, 2 mL blood samples were collected by cranial vena cava puncture (4 mL Sodium heparin Vacutainer, 20 g 1.5″ needle) after the skin surface was wiped with ethanol. The minipig was placed in a sling in a recumbent position without anesthesia for the collection of blood samples. The minipigs were never used more than once per 7 days for experimentation. The blood samples were kept on ice until processed for plasma. Blood samples were centrifuged at 1200×g for ten minutes at 4° C. and plasma samples were transferred to 96 well plate tubes, capped and stored at −20° C. until shipment on dry ice to the analytical laboratory used for measuring the concentration of drug in the plasma. The concentration of the parent manganese pentaaza macrocylic ring complex (independent of the composition of the axial ligands) was measured in plasma using a validated HPLC/MS/MS method that is linear between 50 ng/mL and 20,000 ng/mL.
The oils used for preparing the dosing solutions were used as supplied from commercial sources. The Capmul MCM (NF) is a mixture of mono/diglycerides of caprylic/capric acids and was supplied by ABITEC Corporation, Janesville, Wis. The Miglyol 812 N is a mixture of caprylic/capric acid triglycerides and was supplied by Cremer Oleo Division, Eatontown, N.J. Labrafil M 2125 CS (NF) is chemically defined to be linoleoyl polyoxyl-6 glycerides NF and was supplied by Gattefosse, SAINT-PRIEST Cedex, France. Peceol is chemically defined to be the monoglyceride, glyceryl monooleate NF, and was supplied by Gattefosse, SAINT-PRIEST Cedex, France. Maisine 35-1 is chemically defined to be the monoglyceride glyceryl monolinoleate (NF) and was supplied by Gattefosse, SAINT-PRIEST Cedex, France. Labrasol (NF) is chemically defined to be caprylocaproyl polyoxyl-8 glycerides NF and was supplied by Gattefosse, SAINT-PRIEST Cedex, France. […]

[2] = system: experimental model of colitis; details: intraperitoneal (ip) injection, rats; cited from earlier work
[3] = system: radiation-induced oral mucositis; details: ip, hamster; cited from earlier work
[4] = system: lethal total body irradiation; details: ip, adult mice; cited from earlier work
[5] = system: collagen-induced arthritis; details: ip, rat; cited from earlier work
[6] = system: VEGFr inhibitor-induced pulmonary disease; details: ip, rat; cited from earlier work
mouse cancer models = details: ip; cited from earlier work
oral mucositis = details: intravenous (iv) infusion, patients; cited from earlier work

Compound: [Cl-].[Cl-].[Mn+2].c1cc2nc(c1)CN[C@@H]1CCCC[C@H]1NCCN[C@@H]1CCCC[C@H]1NC2 [GC4403]
- Mini-Pig BioA ([1]; base oil Capmul MCM): 9%
- injury to the colon [2]: significantly reduce the injury to the colon
- radiation damage [3]: attenuate the radiation damage
- radiation damage [4]: attenuate the radiation damage
- joint disease [5]: prevent joint disease

- Mini-Pig BioA ([1]; base oil Capmul MCM): 9%
- Mini-Pig BioA ([1]; base oil Labrafil M2125 CS): 7%
- Mini-Pig BioA ([1]; base oil Maisine 35-1): 8%
- Mini-Pig BioA ([1]; base oil Miglyol 812N): 8%
- Mini-Pig BioA ([1]; base oil Peceol): 9%
Compound: [Cl][Mn][Cl].c1cc2nc(c1)CN[C@H]1CCCC[C@@H]1NCCN[C@H]1CCCC[C@@H]1NC2 [GC4419, reference compound]
- pulmonary disease [6]: attenuate VEGFr inhibitor-induced pulmonary disease
- anti-tumor activity of co-administered agents (mouse cancer models): increase the anti-tumor activity of anti-metabolite and anti-mitotic agents
- oral mucositis (oral mucositis): reduce oral mucositis

- Mini-Pig BioA ([1]; base oil Labrafil M2125 CS): 20%
Compound: Manganese(II)bis-propionato[6R-Methyl(4aR,13aR,17aR,21aR)-1,2,3,4,4a,5,6,12,13,13a,14,15,16,17,17a,18,19,20,21,21a-Eicosahydro-11,7-nitrilo-7H-dibenzo[b,h][1,4,7,10] tetraazacycloheptadecine-KN5, KN13, KN18, KN21, KN22]- [GC4747]

- Mini-Pig BioA ([1]; base oil Capmul MCM): 43%
- Mini-Pig BioA ([1]; base oil Labrafil M2125 CS): 25%
- Mini-Pig BioA ([1]; base oil Miglyol 812N): 42%
- Mini-Pig BioA ([1]; base oil Peceol): 29%
- bioavailability / absorption, in words ([1]; minipig id dosing, comparison between axial ligands): much better absorbed
Compound: Manganese(II)bis-L-phenylglycinato[(4aS,13aS,17aS,21aS)-1,2,3,4,4a,5,6,12,13,13a, 14,15,16,17,17a,18,19,20,21,21a-Eicosahydro-11,7-nitrilo-7H-dibenzo[b,h][1,4,7,10] tetraazacyclo-heptadecine-KN5, KN13, KN18, KN21, KN22]- [GC4702]

- Mini-Pig BioA ([1]; base oil Labrafil M2125 CS): 22%
Compound: Manganese(II)bis-propionato[(4aR,13aR,17aR,21aR)-1,2,3,4,4a,5,6,12,13,13a,14,15,16,17,17a,18,19,20,21,21a-Eicosahydro-11,7-nitrilo-7H-dibenzo[b,h][1,4,7,10] tetraazacycloheptadecine-KN5, KN13, KN18, KN21, KN22]- [GC4748]

- Mini-Pig BioA ([1]; base oil Capmul MCM): 36%
Compound: Manganese(II)bis-L-Lactato[(4aS,13aS,17aS,21aS)-1,2,3,4,4a,5,6,12,13,13a,14,15,16,17,17a,18,19,20,21,21a-Eicosahydro-11,7-nitrilo-7H-dibenzo[b,h][1,4,7,10] tetraazacycloheptadecine-KN5, KN13, KN18, KN21, KN22]- [GC4714]

- Mini-Pig BioA ([1]; base oil Capmul MCM): 9%
Compound: Manganese(II)bis-cyclohexanebutyrato[(4aS,13aS,17aS,21aS)-1,2,3,4,4a,5,6,12,13,13a, 14,15,16,17,17a,18,19,20,21,21a-Eicosahydro-11,7-nitrilo-7H-dibenzo[b,h][1,4,7,10] tetraazacyclo-heptadecine-KN5, KN13, KN18, KN21, KN22]- [GC4707]
